Test results from patent US7741493B2, “Heterocyclic compounds as P2X7 ion channel blockers” (Aventis Pharmaceuticals Inc., priority 2003, dated 2010).
Several values for one entry are separate records, joined by “and”; a condition that tells them apart may be missing. Equal values may be shown once. Where a name gives a salt, the structure may show the parent alone.

The compounds below were run against T1, P2X7 (Homo sapiens, UniProt Q99572) (assay: YO-PRO-1 dye uptake assay in U373 cells stably expressing P2X7). Settings: dye uptake through P2X7, U373 cells, 300 μM BzATP, 5 μM YO-PRO-1, test compounds 30 nM to 3 μM; read-out: IC50.
T1 sequence (Q99572 1-595): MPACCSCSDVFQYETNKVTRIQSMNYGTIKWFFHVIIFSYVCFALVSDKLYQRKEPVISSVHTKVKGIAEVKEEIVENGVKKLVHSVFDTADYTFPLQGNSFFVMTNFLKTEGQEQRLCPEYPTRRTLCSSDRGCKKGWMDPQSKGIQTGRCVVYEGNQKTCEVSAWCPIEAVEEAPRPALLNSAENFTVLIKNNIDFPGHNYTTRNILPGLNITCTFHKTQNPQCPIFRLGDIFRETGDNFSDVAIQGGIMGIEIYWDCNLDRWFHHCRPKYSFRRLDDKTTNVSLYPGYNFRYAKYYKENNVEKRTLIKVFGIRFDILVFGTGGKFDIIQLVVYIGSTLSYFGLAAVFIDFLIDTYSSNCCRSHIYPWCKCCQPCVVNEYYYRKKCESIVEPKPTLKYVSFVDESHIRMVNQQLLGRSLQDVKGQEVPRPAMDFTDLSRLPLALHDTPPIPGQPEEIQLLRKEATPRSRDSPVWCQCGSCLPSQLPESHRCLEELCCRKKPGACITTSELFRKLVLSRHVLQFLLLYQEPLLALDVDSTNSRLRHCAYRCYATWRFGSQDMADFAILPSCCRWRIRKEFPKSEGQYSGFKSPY
Assay type: cell-based
Parameters: The complete open reading frame of human P2X7 was amplified from Incyte clone 148057; expressed in transfected cells
Description: Following a 24-hr exposure to DNA, cells were trypsinized and re-seeded at low density in the presence of […] G418. After incubation for 2 weeks, isolated clones were selected with cloning cylinders and replated in […] G418. Cell clones were then expanded. Clones were screened for P2X7 by applying ATP and recording the resultant current using patch clamp electrophysiology.
U373 cells stably expressing P2X7 were used to screen drugs via a dye uptake assay. Cells were plated overnight on collagen coated 96-well plates at a density of 35,000 cells per well. The following day, culture media was replaced with Mg^++ and Ca^++-free Hank's balanced salt solution and various concentrations of test compounds ranging from 30 nM to 3 μM. Cells were then allowed to incubate with test compounds at 37° C. for 20 minutes. Following this incubation period YO-PRO-1 dye (Molecular Probes, Eugene, Oreg., final concentration 5 μM) and 2′-& 3′-O-(4-Benzolybenzoyl)-Adenosine 5′-triphosphate (Sigma Chemical, St Louis, Mo., final concentration 300 μM) were added to the cells sequentially. Cells were then incubated at 37° C. for 1.5 hours. […] Fluorescence in the presence of test substances was compared to that in the absence of test substances (control).

| SMILES | IC50 |
| --- | --- |
| Clc1ccc([C@H]2NC(NCc3ccccc3)=N[C@H]2c2ccc(Cl)cc2)cc1 [[cis-4,5-bis-(4-Chlorophenyl)-4,5-dihydro-1H-imidazol-2-yl]-benzylamine hydrochloride] | 404 nM |
| Cc1ccccc1CCC1=N[C@@H](c2cccc(F)c2)[C@@H](c2cccc(F)c2)N1 [2-[2-(2-Methylphenyl)ethyl]-cis-4,5-bis-(3-fluorophenyl)-4,5-dihydro-1H-imidazole trifluoroacetate] | 94 nM |
| Cc1cccc(CNC2=N[C@@H](c3ccccc3F)[C@@H](c3ccccc3F)N2)c1 [[cis-4,5-bis-(2-Fluorophenyl)-4,5-dihydro-1H-imidazol-2-yl]-(3-methylbenzyl)amine hydrochloride] | 379 nM |
| Fc1ccc(CNC2=N[C@@H](c3ccccc3Cl)[C@@H](c3ccccc3Cl)N2)cc1 [[cis-4,5-bis-(2-Chlorophenyl)-4,5-dihydro-1H-imidazol-2-yl]-(4-fluorobenzyl)amine hydrochloride] | 624 nM |
| Fc1cccc(CC2=N[C@@H](c3ccccc3)[C@@H](c3ccccc3)N2)c1F [2-(2,3-Difluorobenzyl)-cis-4,5-diphenyl-4,5-dihydro-1H-imidazole trifluoroacetate] | 930 nM |
| Fc1cccc([C@H]2NC(Cc3ccccc3F)=N[C@H]2c2cccc(F)c2)c1 [2-(2-Fluorobenzyl)-cis-4,5-bis-(3-fluorophenyl)-4,5-dihydro-1H-imidazole trifluoroacetate] | 449 nM |
| CC(OCC1=N[C@@](C)(c2ccccc2)[C@@H](c2ccccc2)N1)C1CCCC1 (relative stereo) [2-[(1-Cyclopentyl-1-ethoxy)methyl]-cis-4,5-diphenyl-4-methyl-4,5-dihydro-1H-imidazole hydrochloride] | 160 nM |
| C[C@@]1(c2ccccc2)N=C(COC2CCC2)N[C@@H]1c1ccccc1 (relative stereo) [2-[(Cyclobutoxy)methyl]-cis-4,5-diphenyl-4-methyl-4,5-dihydro-1H-imidazole trifluoroacetate] | 722 nM |
| Fc1cccc([C@H]2NC(COc3ccccc3F)=N[C@H]2c2cccc(F)c2)c1 [2-[(2-Fluorophenoxy)methyl]-cis-4,5-bis-(3-fluorophenyl)-4,5-dihydro-1H-imidazole] | 834 nM |
| Fc1cccc(CNC2=N[C@@H](c3ccccc3)[C@@H](c3ccccc3)N2)c1 [(cis-4,5-Diphenyl-4,5-dihydro-1H-imidazol-2-yl)-(3-fluorobenzyl)amine hydrochloride] | 89 nM |
| Fc1cccc(COCC2=N[C@@H](c3ccccc3)[C@@H](c3ccccc3)N2)c1 [2-[(3-Fluorobenzyloxy)methyl]-cis-4,5-diphenyl-4,5-dihydro-1H-imidazole hydrochloride] | 274 nM |
| Cc1ccc([C@H]2NC(NCc3cccc(F)c3)=N[C@H]2c2ccc(C)cc2)cc1 [[cis-4,5-bis-(4-Methylphenyl)-4,5-dihydro-1H-imidazol-2-yl]-(3-fluorobenzyl)amine hydrochloride] | 134 nM |
| CC(C1=N[C@](C)(c2ccccc2)[C@H](c2ccccc2)N1)c1ccccc1 (relative stereo) [2-(1-Phenyl-1-ethyl)-cis-4,5-diphenyl-4-methyl-4,5-dihydro-1H-imidazole trifluoroacetate] | 68 nM |
| Fc1cccc(CNC2=N[C@@H](c3ccccc3Br)[C@@H](c3ccccc3Br)N2)c1 [[cis-4,5-bis-(2-Bromophenyl)-4,5-dihydro-1H-imidazol-2-yl]-(3-fluorobenzyl)amine hydrochloride] | 782 nM |
| Clc1cccc(CCC2=N[C@H](c3ccccc3)[C@H](c3ccccc3)N2)c1 [2-[2-(3-Chlorophenyl)ethyl]-cis-4,5-diphenyl-4,5-dihydro-1H-imidazole trifluoroacetate] | 120 nM |
| Cc1cccc([C@H]2NC(NCc3ccc(F)c(F)c3)=N[C@H]2c2cccc(C)c2)c1 [[cis-4,5-bis-(3-Methylphenyl)-4,5-dihydro-1H-imidazol-2-yl]-(3,4-difluorobenzyl)-amine hydrochloride] | 118 nM |
| c1ccc(C(CC2=N[C@@H](c3ccccc3)[C@@H](c3ccccc3)N2)c2ccccc2)cc1 [2-[2,2-diphenylethyl]-cis-4,5-diphenyl-4,5-dihydro-1H-imidazole trifluoroacetate] | 320 nM |
| c1ccc(CSCC2=N[C@@H](c3ccccc3)[C@@H](c3ccccc3)N2)cc1 [2-[(Benzylsulfanyl)methyl]-cis-4,5-diphenyl-4,5-dihydro-1H-imidazole trifluoroacetate] | 583 nM |
| Fc1cccc([C@H]2NC(Cc3ccc(F)cc3F)=N[C@H]2c2cccc(F)c2)c1 [2-(2,4-Difluorobenzyl)-cis-4,5-bis-(3-fluorophenyl)-4,5-dihydro-1H-imidazole trifluoroacetate] | 409 nM |
| COc1cccc(CSC2=N[C@@H](c3ccccc3)[C@@H](c3ccccc3)N2)c1 [2-[(3-Methoxybenzyl)thio]-cis-4,5-diphenyl-4,5-dihydro-1H-imidazole hydrochloride] | 987 nM |
| Brc1ccccc1CC1=N[C@@H](c2ccccc2)[C@@H](c2ccccc2)N1 [cis-4,5-diphenyl-2-(2-bromobenzyl)-4,5-dihydro-1H-imidazole] | 321 nM |
| Fc1ccc(CC2=N[C@@H](c3ccccc3)[C@@H](c3ccccc3)N2)c(F)c1 [2-(2,4-Difluorobenzyl)-cis-4,5-diphenyl-4,5-dihydro-1H-imidazole trifluoroacetate] | 42 nM |
| Fc1ccc(CNC2=N[C@@H](c3ccccc3F)[C@@H](c3ccccc3F)N2)cc1F [[cis-4,5-bis-(2-Fluorophenyl)-4,5-dihydro-1H-imidazol-2-yl]-(3,4-difluorobenzyl)-amine hydrochloride] | 312 nM |

Next, values leading:

| IC50 | SMILES |
| --- | --- |
| 83 nM and 80 nM | Cc1ccc(CC2=N[C@H](c3ccccc3)[C@H](c3ccccc3)N2)cc1 [cis-4,5-diphenyl-2-(4-methylbenzyl)-4,5-dihydro-1H-imidazole] |
| 110 nM | C[C@H](C1=N[C@@H](c2ccccc2)[C@@H](c2ccccc2)N1)c1ccccc1 [trifluoroacetate] |
| 163 nM and 160 nM | Clc1ccccc1CC1=N[C@H](c2ccccc2)[C@H](c2ccccc2)N1 [cis-4,5-diphenyl-2-(2-chlorobenzyl)-4,5-dihydro-1H-imidazole] |
| 525 nM | C[C@@]1(c2ccccc2)N=C(CSCc2ccccc2)N[C@@H]1c1ccccc1 (relative stereo) [cis-4,5-diphenyl-4-methyl-2-[(benzylsulfanyl)methyl]-4,5-dihydro-1H-imidazole] |
| 594 nM | Cc1ccc(F)c(CC2=N[C@@H](c3ccccc3)[C@@H](c3ccccc3)N2)c1F [trifluoroacetate] |
| 142 nM | Fc1ccc(F)c(CC2=N[C@@H](c3ccccc3)[C@@H](c3ccccc3)N2)c1 [trifluoroacetate] |
| 113 nM | c1ccc(CCNC2=N[C@@H](c3ccccc3)[C@@H](c3ccccc3)N2)cc1 [cis-4,5-diphenyl-2-[(2-phenyl)ethyl]amino-4,5-dihydro-1H-imidazole] |
| 521 nM | Brc1ccccc1CSC1=N[C@@H](c2ccccc2)[C@@H](c2ccccc2)N1 [cis-4,5-diphenyl-2-(2-bromobenzyl)thio-4,5-dihydro-1H-imidazole] |
| 866 nM | c1ccc(SCC2=N[C@@H](c3ccccc3)[C@@H](c3cccnc3)N2)cc1 (relative stereo) [ditrifluoroacetate] |
| 386 nM | COc1cccc(CNC2=N[C@@H](c3ccccc3)[C@@H](c3ccccc3)N2)c1 [cis-4,5-diphenyl-2-(3-methoxybenzyl)amino-4,5-dihydro-1H-imidazole] |
